According to patent publication US9987379B2, “Molecular probes for imaging of myelin” (Case Western Reserve University, priority 2008, dated 2018):

Tests used:
[1] = biological target: [3H]BMB binding sites on rat myelin fractions; assay: Competition binding assay using [3H]BMB as radioligand in isolated myelin fractions; conditions: 1.87 nM [3H]BMB, Cheng-Prusoff from IC50
Procedure: FIG. 4 illustrates plots of competition binding assays of test compounds using [^3H]BMB as the radioligand in isolated myelin fractions. The concentrations that inhibited 50% of specific binding of [^3H]BMB (IC50 values) were converted to inhibition constant (Ki). Ki values were calculated using the Cheng-Prusoff equation: Ki=IC50/(1+[L]/Kd), where [L] is the concentration of [^3H]BMB used in the assay. Data are means of three independent measurements done in duplicate.
In vitro binding assay using radioligand is the most sensitive techniques available to quantitatively determine the binding affinities of compounds to certain proteins. Our previous studies have shown that BMB binds to myelin sheaths with high affinity and specifity (Stankoff, B.; Wang, Y.; Bottlaender, M.; Aigrot, M. S.; Dolle, F. et al. Imaging of CNS myelin by positron-emission tomography. Proc Natl Acad Sci USA 2006, 103, 9304-9309). For this reason, tritiated BMB was custom synthesized by American Radiolabeled Chemicals Inc. (St Louis, Mo.) and was used as the radioligand for binding assays. This allowed us to determine the binding affinities of the newly synthesized compounds using isolated rat myelin fractions. Saturation experiment was first conducted using [^3H]BMB. […] Competitive binding assays were also conducted using [^3H]BMB as radioligand. The stilbene derivatives competed effectively with [^3H]BMB binding sites on rat myelin fractions at affinities of low micromole concentrations.
(§1) Sprague-Dawley (SD) rats were asphyxiated with CO2. When the rat had stopped breathing, the skin/fur over the neck was wetted with a spray of 70% ethanol. […] The concentration of myelin and pellet were determined by Bio-Rad Protein Assay.
The radioligand-based binding assays were carried out in 12×75 mm borosilicate glass tubes. […] Nonspecific binding was defined in the presence of cold BMB (1 μM, diluted in PBS (containing 1% DMSO) in the same assay tubes. For the competition binding, 10^−5 to 10^−10 M compounds and 1.87 nM [^3H]BMB were used for the studies. The mixture was incubated at 37° C. for 2 hrs. The bound and free radioactivity were separated by rapid vacuum filtration through Whatman GF/B filters using a Brandel M-24R cell harvester followed by 3×2 mL washes of PBS at room temperature. Filters containing the bound radioligand were dissolved in 6 mL biodegradable counting cocktail overnight and the radioactivity was assayed next day in the scintillation counter (Beckman) with 42% counting efficiency. The results of saturation and inhibition experiments were subjected to nonlinear regression analysis using Graph Pad Prism 4 by which Kd and Ki values were calculated.

[2] = tested on: isolated myelin fractions; assay: Spectrophotometry-based binding assay with isolated myelin fractions; parameters: species or system rat; conditions: 10 μM compound per tube, 1 h room temperature
Procedure: (§2) FIG. 2 illustrates plots of the concentrations of free, unbound 6 and 7 following incubation with isolated myelin fractions and non-myelin pellets based upon a spectroscopic assay. In these assays, 10 μM of 6 and 7 was added to each solution containing myelin fractions or non-myelin pellets at various concentrations ranging from 0-2.5 μg per tube. Each data point was repeated in triplicate and an average was used.
Binding affinities of newly synthesized compounds 6 and 7 were determined based on spectrophotometry. […] The desired proteins were aliquoted and frozen at −80° C. for up to 6 months without noticeable change in its properties determined by electrophoresis (data not shown). […] The free and bound tested compounds were then separated by centrifuging at 6000 rpm for 10 min and quantified.
Sprague-Dawley (SD) rats were asphyxiated with CO2. […] The concentration of myelin and pellet were determined by Bio-Rad Protein Assay.
In the spectrophotometry-based binding assays, a solution of 6 or 7 (800 μL, 12.5 μM) dissolved in 10% DMSO buffer solution containing 10 mM MgCl2 and 10 mM PBS (pH 7.4) was incubated with isolated myelin or pellets at different concentrations ranging from 0.06 to 14 μg/tube. […] In parallel, non-specific binding was determined using pellets under the same condition. […]

non-myelin pellets = assay: Spectrophotometry-based binding assay with non-myelin pellets; parameters: species or system rat; conditions: 1 h room temperature; for binding to non-myelin fractions: 10 μM compound per tube; for concentration of free, unbound compound (constant and close to the total concentration initially used): incubated with non-myelin pellet at increasing concentration
Procedure: as §2
Binding affinities of newly synthesized compounds 6 and 7 were determined based on spectrophotometry. Myelin sheaths and non-myelin pellets were extracted from rat's brain homogenates according to subcellular fraction protocol (Martenson, R. E.; Deibler, G. E.; Kies, M. W. Extraction of rat myelin basic protein free of other basic proteins of whole central nervous system tissue. An analysis of its electrophoretic heterogeneity. J Biol Chem 1969, 244, 4268-4272). Briefly, the homogenates were successively mixed with different concentrations of sucrose and spun in a Beckman ultracentrifuge. Myelin sheaths and non-myelin containing pellets were well separated according to their different densities and located in different layers of sucrose. The proteins were then collected and washed thoroughly with Colman buffer (10 mM). The desired proteins were aliquoted and frozen at −80° C. for up to 6 months without noticeable change in its properties determined by electrophoresis (data not shown). Prior to binding assays, the protein fractions (myelin and pellet) were thawed and diluted with PBS (10 mM, pH 7.0). A series of concentrations of the protein fractions were incubated with tested compounds (6 and 7, 12.5 μM) for 1 h at room temperature. The free and bound tested compounds were then separated by centrifuging at 6000 rpm for 10 min and quantified.
as §1
In the spectrophotometry-based binding assays, a solution of 6 or 7 (800 μL, 12.5 μM) dissolved in 10% DMSO buffer solution containing 10 mM MgCl2 and 10 mM PBS (pH 7.4) was incubated with isolated myelin or pellets at different concentrations ranging from 0.06 to 14 μg/tube. […] Following incubation at room temperature for 1 hr, the free and bound 6 or 7 was separated by centrifugation at 6000 rpm for 10 min The supernatant was then collected and the UV absorption of free 6 or 7 determined by UV spectrometer were at 350 nm or 363 nm. […] In parallel, non-specific binding was determined using pellets under the same condition. […]

[3] = tested on: myelinated corpus callosum and cerebellum; assay: In vitro staining of myelinated white matter in mouse brain tissue sections (fluorescent microscopy); type: binding; conditions: 10 μM, wild-type mouse brain sections
Procedure: We then evaluated the myelin-binding properties of the newly synthesized compounds 3, 6, and 7 through in vitro staining of mouse brain tissue sections. Both myelinated corpus callosum and cerebellar regions were then examined by fluorescent microscopy.
Normal control mice were deeply anesthetized and perfused transcardially with saline (10 mL) followed by fixation with 4% PFA in PBS (10 mL, 4° C., pH 7.6). Brain tissues were then removed, postfixed by immersion in 4% PFA overnight, dehydrated in 30% sucrose solution, embedded in freezing compound (OCT, Fisher Scientific, Suwanee, Ga.), cryostat sectioned at 10 μm on a microtome and mounted on superfrost slides (Fisher Scientific). The brain sections were incubated with compound 3, 6 and 7 (10 μM, 1% DMSO in PBS (10 mM, pH 7.0)) for 20 minutes at room temperature in dark. Excess compounds were washed by briefly rinsing the slides in PBS (10 mM, pH 7.0) and coversliped with fluoromount-G mounting media (Vector Laboratories, Burlingame, Calif.). Sections were then examined under a Leica DRMB microscope equipped for fluorescence.

myelinated cerebellum = assay: In situ tissue staining of myelinated white matter after tail vein injection; type: in vivo, mouse; conditions: 20-80 mg/kg tail vein, three hours post injection, wild-type mice
Procedure: Following our in vitro tissue staining studies, we then evaluated the brain permeability and subsequent myelin-binding properties of 6 and 7 in the mouse brain. A dose of 6 or 7 (20-80 mg/kg) was administered via tail vein injection into wild-type mice. Three hours post injection, the mouse brains were perfused with saline followed by 4% paraformaldehyde (PFA) and removed. The fresh frozen brains were then sectioned. Fluorescent staining of myelinated regions such as the cerebellum were then directly examined under a microscope.
Under anesthesia, wild-type mice were injected with compounds 6 and 7 (20-80 mg/kg) via the tail vein, and the mice were then perfused transcardially with saline (10 ml) followed by 4% PFA in PBS (10 ml, 4° C., pH 7.6). Brain tissues were then removed, postfixed by immersion in 4% PFA overnight, dehydrated in 30% sucrose solution, cryostat sectioned at 16 μm on a microtome and mounted on superfrost slides (Fisher Scientific), and imaged directly under fluorescent microscopy without any further staining.

[4] = Solubility in organic solvents; type: physicochemical

Structure (SMILES)	Ki [1] [µM]	binding to myelin fractions (free concentration decreased proportionally with myelin concentration) [2]	binding to non-myelin fractions (non-myelin pellets)	concentration of free, unbound compound (constant and close to the total concentration initially used) (non-myelin pellets) [µM]	in vitro fluorescent staining of brain tissue sections [3]	brain entry and in situ labeling of myelin (myelinated cerebellum)	solubility [4]
Nc1ccc(C=Cc2ccc(I)cc2)cc1 [Compound 9, 4-[2-(4-Iodo-phenyl)-vinyl]-phenylamine]	0.494						
CNc1ccc(C=Cc2ccc(N)cc2)cc1 [Compound 7, N-methyl-{4-[2-(4-amino-phenyl)-vinyl]-phenyl}-amine]	0.126	specific binding interactions exist	no binding to the non-myelin fractions	~10.53	selectively labeled both corpus callosum and cerebellum	readily entered the mouse brain and selectively labeled myelinated cerebellum	soluble in EtOH, CH2Cl2, DMSO and other organic solvents
Nc1ccc(/C=C/c2ccc(N)cc2)cc1 [Compound 3, (E)-4,4′-diamino-trans-stilbene]	0.37				selectively labeled both corpus callosum and cerebellum		soluble in EtOH, CH2Cl2, DMSO and other organic solvents
CN(C)c1ccc(/C=C/c2ccc(N)cc2)cc1 [Compound 6, (E)-dimethyl-{4-[2-(4-amino-phenyl)-vinyl]-phenyl}-amine]	0.119	specific binding interactions exist	no binding to the non-myelin fractions	~10.47	selectively labeled both corpus callosum and cerebellum	readily entered the mouse brain and selectively labeled myelinated cerebellum	soluble in EtOH, CH2Cl2, DMSO and other organic solvents
